Values of other authors as cited in patent US11357752B2, “Carolacton and derivatives thereof for use in the treatment of cell proliferation disorders” (Helmholtz-Zentrum für Infektionsforschung GmbH, priority 2017, dated 2022).

Tested on: MTHFD1 or MTHFD2
Conditions: prior-art inhibitor, poor activity; cited from earlier work

Nc1nc2c(c(=O)[nH]1)N1C(=O)N(c3ccc(C(=O)N[C@@H](CCC(=O)O)C(=O)O)cc3)CC1CN2 (stereo partly shown) [LY345899]
IC50: 128 µM
